Experimental data published in patent US11981944B2, “Immunogenic arginase peptides” (IO Biotech ApS, priority 2016, dated 2024).

What was measured:
Format in all cases: cell-based, human
[1] = tested on: peripheral blood mononuclear cells (PBMC); test: IFN-gamma ELISPOT secretion assay on PBMC (Example 1); conditions: for immune responses against overlapping 20mer peptides: PBMC from three cancer patients, FIG. 3; for specific T-cell responses against Arg-derived peptide: IFN-gamma ELISPOT, PBMC from six melanoma patients, FIG. 1
[2] = tested on: PBMCs from healthy donors or cancer patients; test: IFNγ ELISPOT on PBMCs after one week peptide and IL-2 stimulation (Example 2); conditions: for spontaneous IFNγ ELISPOT responses against 20-mer library peptides: cancer (melanoma) patient PBMCs, FIG. 9A
Method: PBMCs from healthy donors or cancer patients were stimulated with 80 μg of arginase-derived peptides and 120 U/ml IL-2 (Peprotech, London, UK, cat. 200-02) for a week. 4-6×10^5 PBMCs were then placed in the bottom of ELISPOT plate (nitrocellulose bottomed 96-well plates by MultiScreen MAIP […]; Millipore, cat. MSIPN4W50) pre-coated with IFN-y capture Ab (Mabtech, cat. 3420-3-1000) and 1-10 μg of arginase derived peptides were added. PBMCs from each patient and donors were set up in duplicates or triplicates for peptide and control stimulations. Cells were incubated in ELISPOT plates in the presence of an antigen for 14-16 hours after which they are washed off and secondary biotinylated Ab (Mabtech, cat. 3420-6-1000) was added. After 2 h incubation unbound secondary antibody was washed off and streptavidin conjugated alkaline phosphatase (AP) (Mabtech, cat. 3310-10) was added for 1 h. Next, unbound conjugated enzyme is washed off and the assay is developed by adding BCIP/NBT substrate (Mabtech, cat. 3650-10). Developed ELISPOT plates were analysed on CTL ImmunoSpot S6 Ultimate-V analyzer using Immunospot software v5.1. Responses were calculated as the difference between average numbers of spots in wells stimulated with Arginase-1 peptides and control wells. We divided the entire arginase-1 protein sequence into overlapping 20-amino-acid-long peptides, generating a library of 31 peptides covering the whole sequence (SEQ ID NOs 18-48)). Each peptide in the library overlapped with the first 10 amino acids of the following peptide. Using this arginase peptide library and the IFNγ ELISPOT assay, we next screened PBMCs from melanoma patients and healthy donors for spontaneous responses (FIGS. 9A and 9B). The PBMCs were stimulated for one week with a pool of 3-4 adjacent 20-mer arginase library peptides and low-dose IL-2 (120 U/mL). They were then set up for an IFNγ ELISPOT assay to screen for responses against each 20-mer peptide separately. […] Among these overlapping peptides, […]-200), and Arg(191-210) spanned a 50-amino-acid-long region that was deemed a hot-spot region since nearly all patients harbored a response against one or more of these peptides (FIG. 9A). The selected eight peptides were further used to screen for spontaneous immune responses against arginase-1 in PBMCs from eight healthy donors using IFNγ ELISPOT. […] Since we most frequently observed responses against arginase-1 peptides from the hot-spot region, we next analyzed whether longer peptides covering the same sequence could be used instead of four 20-mers. […] We then divided the arginase-1 hot-spot region into two 30-mer peptides that overlapped by 10 amino acids (peptides labelled by reference to start and end position): […]-190) and […]-210). These 30-mer peptides were used to check for responses in selected PBMCs from cancer patients and healthy donors, which had previously shown responses against the 20-mer hot-spot peptides. The PBMCs were stimulated for one week with either […]-190) or […]-210) in the presence of IL-2, and were then used in IFNγ ELISPOT.

[3] = tested on: TILs from eight melanoma patients; test: Intracellular staining for IFNγ and TNFα release in melanoma TILs
Method: Flow cytometry analysis was performed on a FACSCantoTM II (BD Biosciences, San Jose CA, USA). Intracellular staining of cell cultures was performed after the cells were stimulated with 20-mere peptides for 5 hours or 30-mere peptides for 8h (BD GolgiPlugTM cat. 555029, was added after the first hour). The cells were then stained for surface markers, then washed and permeabilized by using Fixation/Permeabilization and Permeabilization Buffer (eBioscience, cat. 00-5123-43), according to manufacturer's instructions. Antibodies used: IFNγ-APC (cat. 341117), TNFα-BV421 (cat. 562783), CD4-FITC (cat. 347413), CD8-PerCP (cat. 345774) (all from BD Biosciences). Dead cells were stained using FVS510 (564406, BD Biosciences) according to manufacturer's instructions. To investigate the potential presence of arginase-specific T cells among tumor-infiltrating lymphocytes in cancer, we screened TILs from eight melanoma patients for responses against arginase-1 derived peptides. To this end, we performed intracellular staining for IFNγ and TNFα release in response to peptide stimulation. TILs were thawed and rested overnight without IL-2, and then stimulated for 5 h with three hot-spot immunogenic region 20-mer peptides (peptides labelled by reference to start and end position): […]-200). […] The percentage of IFNγ-producing cells was higher for […]-190) and […]-200) compared to […]-180), and the response against […]-200) was almost twice that against […]-180).

| Sequence | immune responses against overlapping 20mer peptides [1] | specific T-cell responses against Arg-derived peptide [1] | also measured |
| --- | --- | --- | --- |
| HGQPVSFLLKELKGKIPDVP (Peptide fragment of human Arginase 1) [Arg1-15, positions 141-160 of human Arginase 1] | Frequent immune responses were detected |  |  |
| HARVHPDLGVIWVDAHTDIN (Peptide fragment of human Arginase 1) [Arg1-12, positions 111-130 of human Arginase 1] | Frequent immune responses were detected |  | spontaneous IFNγ ELISPOT responses against 20-mer library peptides [2]: highest and most abundant responses |
| VLGGDHSLAI (Peptide fragment of human Arginase 1) [Arg15, positions 96-105 of human Arginase 1] |  | Strong responses |  |
| KTLGIKYFSMTEVDRLGIGK (Peptide frgment of human Arginase 1) [Arg1-20, positions 191-210 of human Arginase 1] | Frequent immune responses were detected |  | spontaneous IFNγ ELISPOT responses against 20-mer library peptides [2]: highest and most abundant responses |
| SLGKTPEEVTRTVNTAVAIT (Peptide fragment of human Arginase 1) [Arg1-29, positions 281-300 of human Arginase 1] | Frequent immune responses were detected |  |  |
| GLLSGLDIM (Peptide fragment of human Arginase 1) [Arg9, positions 268-276 of human Arginase 1] |  | Strong responses |  |
| DIMEVNPSL (Peptide fragment of human Arginase 1) [Arg10, positions 274-282 of human Arginase 1] |  | Strong responses |  |
| VMEETLSYL (Peptide fragment of human Arginase 1) [Arg5, positions 211-219 of human Arginase 1] |  | Strong responses |  |
| DVDPGEHYILKTLGIKYFSMTEVDRLGIGK (Peptide fragment of human Arginase 1) [Arg(181-210), 30-mer, positions 181-210 of human Arginase 1] |  |  | IFNγ ELISPOT responses against longer hot-spot peptides ([2]; selected PBMCs from cancer patients and healthy donors, one week stimulation with IL-2, FIG. 10B, 10C): lower than those against the overlapping 20-mer peptides |
| LRKAGLLEKLKEQECDVKDY (Peptide fragment of human Arginase 1) [Arg1-4, positions 31-50 of human Arginase 1] | Frequent immune responses were detected |  | spontaneous IFNγ ELISPOT responses against 20-mer library peptides [2]: highest and most abundant responses |
| AKDIVYIGLRDVDPGEHYIL (Peptide fragment of human Arginase 1) [Arg1-18, positions 171-190 of human Arginase 1] | Frequent immune responses were detected |  | spontaneous IFNγ ELISPOT responses against 20-mer library peptides [2]: highest and most abundant responses; percentage of IFNγ-producing cells compared to Arg(161-180) ([3]; CD4+ T cells in TILs, 5 h stimulation): higher; IFNγ or TNFα release from CD8+ T cells ([3]; TILs, 5 h peptide stimulation): No IFNγ or TNFα release was observed; IFNγ release from CD4+ T cells ([3]; one of the TIL cultures, 5 h peptide stimulation, FIG. 10A): IFNγ was released from CD4+ T cells |
| LLSGLDIMEV (Peptide fragment of human Arginase 1) [Arg11, positions 269-278 of human Arginase 1] |  | Strong responses |  |
| TPLTTTSGNLHGQPVSFLLK (Peptide fragment of human Arginase 1) [Arg1-14, positions 131-150 of human Arginase 1] | Frequent immune responses were detected |  |  |
| MSAKSRTIGIIGAPFSKGQP (Peptide fragment of human Arginase 1) [Arg1-1, positions 1-20 of human Arginase 1] | Frequent immune responses were detected |  |  |
| DSPFQIVKNPRSVGKASEQL (Peptide fragment of human Arginase 1) [Arg1-7, positions 61-80 of human Arginase 1] | Frequent immune responses were detected |  |  |
| TEEIYKTGLLSGLDIMEVNP (Peptide fragment of human Arginase 1) [Arg1-27, positions 261-280 of human Arginase 1] | Frequent immune responses were detected |  | spontaneous IFNγ ELISPOT responses against 20-mer library peptides [2]: highest and most abundant responses |
| ELKGKIPDVPGFSWVTPCIS (Peptide fragment of human Arginase 1) [Arg1-16, positions 151-170 of human Arginase 1] | Frequent immune responses were detected |  |  |
| GRKKRPIHLSFDVDGLDPSF (Peptide fragment of human Arginase 1) [Arg1-23, positions 221-240 of human Arginase 1] | Frequent immune responses were detected |  | spontaneous IFNγ ELISPOT responses against 20-mer library peptides [2]: highest and most abundant responses |
| LVLGGDHSL (Peptide fragment of human Arginase 1) [Arg2, positions 95-103 of human Arginase 1] |  | Strong responses |  |
| VMEETLSYLLGRKKRPIHLS (Peptide fragment of human Arginase 1) [Arg1-22, positions 211-230 of human Arginase 1] | Frequent immune responses were detected |  |  |
| LLKELKGKI [Arg3] |  | Strong responses |  |
| HLSFDVDGL (Peptide fragment of human Arginase 1) [Arg6, positions 228-236 of human Arginase 1] |  | Strong responses |  |
| SLGKTPEEV (Peptide fragment of human Arginase 1) [Arg7, positions 281-289 of human Arginase 1] |  | Strong responses |  |
| YLLGRKKRPI (Peptide fragment of human Arginase 1) [Arg14, positions 218-227 of human Arginase 1] |  | Strong responses |  |
| GDLPFADIPNDSPFQIVKNP (Peptide fragment of human Arginase 1) [Arg1-6, positions 51-70 of human Arginase 1] | Frequent immune responses were detected |  |  |
